The source of these data is article PMC5473904, “Epigenetic and antitumor effects of platinum(IV)-octanoato conjugates” (Scientific Reports, 2017).

A short description of data set [1]: Biodistribution of platinum after oral administration (ICP-MS). The data set is classed as in vivo, C57BL mice. Particulars: LLC-bearing mice; for Percentage of the administered drug reaching the tumor mass / Tissue platinum distribution: single oral dose 20 mg kg-1, 4 h; for Platinum concentration in blood: whole blood, single oral dose 20 mg kg-1, 1 and 4 h. The text has this:
It was previously shown for a similar series of dicarboxylato Pt(IV) compounds that organic chains of intermediate length offer the best compromise between lipophilicity and water solubility for oral administration. […] The details of these experiments and their results are described in the Supplementary material and Supplementary Fig. S2. […] In contrast, platinum scarcely accumulated in intestine and lung. Noteworthy, a slightly higher platinum content was found in the tumor mass in the mice treated with Pt(IV)diOA than in those treated with Pt(IV)diVPA. […]
Biodistribution after oral administration
For Pt(IV) complexes having axial carboxylato ligands, the lipophilicity increases as the number of carbon atoms in the chain increases. This lipophilicity increase offers a beneficial effect on the cellular accumulation and in vitro cytotoxic potency up to a point where the drop in water solubility impedes the administration of the drugs (around C8-C10 carbon chains)1,2.
Moreover, excessive lipophilicity can hinder transport of such Pt(IV) derivatives in vivo across intestinal epithelial cells making them more vulnerable to hepatic metabolism.
It was previously shown for a similar series of dicarboxylato Pt(IV) compounds (except the VPA-derivative) that organic chains of intermediate length offer the best compromise between lipophilicity and water solubility for oral administration3. To better understand the biodistribution properties of the Pt(IV) complexes, following administered by oral gavage in a -1 single dose (20 mg kg ), tissue samples collected from LLC-bearing mice were analyzed by ICP-MS. After 1 and 4 h, blood samples were collected and subsequently animals were sacrificed, and tissue samples were collected. The platinum levels in tumor, kidney, liver, intestine, lung and whole blood aliquots are shown in Fig. S2, panels A and B. It is important to recall that using this protocol it is possible to estimate only the overall Pt content and not its oxidation state or speciation [i.e. Pt(IV) metabolites or Pt(II) metabolites produced by reduction and further interactions]. […]
Biodistribution after oral administration. For in vivo kinetic experiments, 8-10 week old C57BL mice (24 ± 3 g body weight) received the drugs as an oral gavage single dose of -1 butanoato, hexanoato, octanoato and valproate Pt(IV) complexes (20 mg kg , dissolved in a vehicle solution composed of 20% Cremophor EL (v/v), 20% PEG400 (v/v) and 60% saline solution (v/v)). At each time point (1 and 4 h, respectively), animals were anesthetized, and blood was collected by a vain tail puncture. In addition, samples of organs (kidney, liver, lung and intestine) and tumor were collected at 4 h and stored at −20 °C. Blood, organ samples and tumor were subjected to quantitative determination of platinum content.−1 The samples were treated with highly pure nitric acid ([Pt] ≤ 0.01 μg kg TraceSELECT Ultra, Sigma Chemical Co.) and transferred into a microwave Teflon vessel. Subsequently, samples were submitted to the standard procedure using a speed microwave. After cooling, each mineralized sample was analyzed for platinum by ICP-MS (ThermoOptek X Series 2). Instrumental settings were optimized to achieve maximum sensitivity for platinum. For quantitative determination, the most abundant isotopes of platinum and indium (used as internal standard) were measured at m/z 195 and 115, respectively.
Accumulation of platinum in tumor cells treated with Pt(IV) complexes and cisplatin (in cellulo experiments) in the absence of serum. A2780 cells were seeded in 10 mm Petri dishes and treated with the platinum complexes (10 μM) for 4 h in complete medium, i.e. + 10 % FBS (HyClone, GE Healthcare). At time zero, 100 μL of medium was taken out from each sample to check the extracellular Pt concentration. At the end of the exposure, cells were washed three times with phosphate-buffered saline (PBS), detached from the Petri dishes using 0.05% Trypsin 1X + 2% EDTA (HyClone, GE Healthcare) and harvested in fresh […]

The test system of a further data set is DNA from HCT-116 cells. Description: Platinum content on DNA isolated from treated cells (ICP-MS). The data set is classed as cell-based, human. The following applies: for Platinum content on DNA / Platinum on DNA, % from the total intracellular Pt amount: HCT-116, 24 h, 0.35 µM; for Platinum on DNA, % from the total intracellular Pt amount: rough estimate from Tables 2 and 3. As for the experimental part: (§1) As for antitumor cisplatin and its direct derivatives, DNA is believed to be the target also for Pt(IV) prodrugs examined in the present work.
(§2) The cells were seeded in 150 cm^2 culture flasks at a density 1 × 10^7 cells/flask (67 000 cells/cm^2). After 48-h incubation, the cells were treated with the compounds (0.35 μM) for 24 h. The attached cells were washed twice with PBS (4 °C). As mentioned in the preceding paragraph, 75% of cells were used for analysis of platinum bound to DNA, remaining 25% were used for estimations of cellular accumulation of platinum. Cells were then lysed in DNAzol (DNAzol® genomic DNA isolation reagent, MRC) supplemented with RNase A (100 μg mL^−1). The genomic DNA was precipitated from the lysate with ethanol, dried and resuspended in water. The DNA content in each sample was determined by UV spectrophotometry. The DNA samples were digested in the presence of hydrochloric acid (11 M) using high-pressure microwave mineralization system (MARS5, CEM). The platinum content was determined by ICP-MS. Experiments were performed in triplicate and the values are the means ± SD.

The subject of the next data set is DNA from A2780 cells. The description is as above. The data set is classed as cell-based, human. The following applies: for Platinum content on DNA / Platinum on DNA, % from the total intracellular Pt amount: A2780, 24 h, 0.35 µM; for Platinum on DNA, % from the total intracellular Pt amount: rough estimate from Tables 2 and 3. As for the experimental part:
as §1, §2

Consider `CCCC(CCC)C(=O)[O][Pt]([NH2])([NH2])([Cl])([Cl])[O]C(=O)C(CCC)CCC` [Pt(IV)diVPA, cis, cis, trans-[Pt(IV)(NH3)2Cl2(VPA)2]], for which, in data set [1], the “Percentage of the administered drug reaching the tumor mass” value is recorded as approximately 10%; the Tissue platinum distribution entry is “the highest platinum concentrations were found in liver followed by tumor tissue and kidney”; the “Platinum concentration in blood” value is reported as “around 0.5 μg Pt mL^−1”.

As for `CCCCCCCC(=O)[O][Pt]([NH2])([NH2])([Cl])([Cl])[O]C(=O)CCCCCCC` [Pt(IV)diOA, cis, cis, trans-[Pt(IV)(NH3)2Cl2(OA)2]], in data set [1], the “Percentage of the administered drug reaching the tumor mass” value is given as “about 18%”; the Tissue platinum distribution entry was “the highest platinum concentrations were found in liver followed by tumor tissue and kidney”; the “Platinum concentration in blood” value is on record as “around 0.5 μg Pt mL^−1”. For the same compound, in the data set on DNA from HCT-116 cells, the “Platinum content on DNA” value is reported as 123.1 ± 5.1 pg Pt/µg DNA and the “Platinum on DNA, % from the total intracellular Pt amount” value (shortened to “Platinum on DNA, %”) is on record as 11.9%. In addition, in the data set with DNA from HCT-116 cells (HCT-116, Fig. 2B), the “Increase of DNA platination vs. cisplatin” value is 77 x. Also, the “Increase of DNA platination vs. Pt(IV)diAc” value in the data set on DNA from HCT-116 cells (HCT-116, Fig. 2D) is 95 x. In the data set on DNA from A2780 cells, the “Platinum content on DNA” value was found to be 43.3 ± 5.3 pg Pt/µg DNA and the “Platinum on DNA, %” value is 13.0%. Besides, the “Increase of DNA platination vs. cisplatin” value with DNA from A2780 cells (A2780, Fig. 2A) turned out to be 28 x. In addition, the “Increase of DNA platination vs. Pt(IV)diAc” value in the data set on DNA from A2780 cells (A2780, Fig. 2C) came to 39 x.

Consider `N.N.[Cl][Pt][Cl]` [cisplatin, reference compound], for which, in the data set with DNA from HCT-116 cells, the “Platinum content on DNA” value is 1.6 ± 0.2 pg Pt/µg DNA and the “Platinum on DNA, %” value was 2.2%. In the data set with DNA from A2780 cells, the “Platinum content on DNA” value turned out to be 1.5 ± 0.6 pg Pt/µg DNA and the “Platinum on DNA, %” value is reported as 2.0%.

Turning to `CC(=O)[O][Pt]([NH2])([NH2])([Cl])([Cl])[O]C(C)=O` [Pt(IV)diAc, cis, cis, trans-[Pt(IV)(NH3)2Cl2(Ac)2]], in the data set on DNA from HCT-116 cells, the “Platinum content on DNA” value was 1.3 ± 0.1 pg Pt/µg DNA and the “Platinum on DNA, %” value was 2.0%. Moreover, in the data set with DNA from A2780 cells, the “Platinum content on DNA” value is 1.1 ± 0.4 pg Pt/µg DNA and the “Platinum on DNA, %” value is given as 1.9%.
